Measured values reported in patent US11850247B2, “Antiviral compounds” (REGENTS OF THE UNIVERSITY OF MINNESOTA, priority 2020, dated 2023).

How the values were obtained:
HIV-1 = assay: Anti-HIV-1 activity in TZM-GFP cells (viral LTR-activated GFP expression); assay type: cell-based; conditions: for inhibition at 2 µM: Human immunodeficiency virus 1, 2 μM compound; for inhibition at 2 µM / inhibition at 20 µM: HIV-1 MOI=1; for inhibition at 20 µM: Human immunodeficiency virus 1, 20 μM compound; for EC50: Human immunodeficiency virus 1, HIV-1 strain MOI=1, GFP positive cells counted after 48 hours
Protocol: The potency of HIV-1 inhibition by a compound was based on its inhibitory effect on viral LTR-activated GFP expression compared with that of compound-free (DMSO) controls. Briefly, TZM-GFP cells were plated at density of 1×10^4 cells per well in a 96-well plate. 24 hours later, media was replaced with increasing concentrations of compound. 24 hours post treatment, cells were exposed to an HIV-1 strain (MOI=1).
(§1) The cytotoxicity of each compound was also determined in TZM-GFP cells. Cells were plated at a density of 1×10^4 cells per well in a 96-well plate and were continuously exposed to increasing concentrations of a compound for 72 hours. The number of viable cells in each well was determined using a Cell Proliferation Kit II (XTT), and 50% cytotoxicity concentration (CC50) values were determined. All the cell-based assays were conducted in duplicate and in at least two independent experiments. For the EC50 and CC50 dose responses, values were plotted in GraphPad Prism 5 and analyzed with the log (inhibitor) vs. normalized response-variable slope equation. Final values were calculated in each independent assay and the average values were determined. Statistical analysis (calculation of standard deviation) was performed by using Microsoft Excel.

[1] = Cytotoxicity in TZM-GFP cells (XTT); assay type: cell-based; conditions: human, 72 hours exposure, XTT
Protocol: as §1

[2] = molecular target: covalently-crosslinked hexameric CA A14C/E45C/W184A/M185A (CA121) (Human immunodeficiency virus type 1 group M subtype B, UniProt P12493, A146C/E177C/M317A/W316A); assay: Thermal shift assay (TSA), CA hexamer stability; assay type: binding, HIV-1; conditions: compound 20 μM, ΔTm=Tm−T0 vs DMSO

SMILES | inhibition at 2 µM (HIV-1) [%] | inhibition at 20 µM (HIV-1) [%] | CC50 at 72 h [1] [µM] | TSA ΔTm (° C.) [2] [°C] | EC50 (HIV-1) [µM]
CN(C(=O)[C@H](Cc1ccccc1)NC(=O)Cc1cccc2ccccc12)c1cccc(Cl)c1 [Example 19, (S)—N-(3-chlorophenyl)-N-methyl-2-(2-(naphthalen-1-yl)acetamido)-3-phenylpropanamide] | 53 | 96 | < 50 | 4.4 | –
Cc1cn(CC(=O)N[C@@H](Cc2ccccc2)C(=O)N(C)c2ccc(Cl)cc2)c(=O)[nH]c1=O [Example 44, (S)—N-(4-chlorophenyl)-N-methyl-2-(2-(5-methyl-2,4-dioxo-3,4-dihydropyrimidin-1(2H)-yl)acetamido)-3-phenylpropanamide] | – | – | > 50 | 1.7 | 1.7 ± 0.2
Cc1cccc2c1NC(=O)C2CC(=O)N[C@@H](Cc1ccccc1)C(=O)N(C)c1ccccc1 (stereo partly drawn) [Example 1, (2S)—N-methyl-2-(2-(7-methyl-2-oxoindolin-3-yl)acetamido)-N,3-diphenylpropanamide] | 0 | 91 | > 50 | −1.2 | –
CN(C(=O)[C@H](Cc1ccccc1)NC(=O)CNC(=O)c1ccccc1)c1cccc(Br)c1 [Example 40, (S)—N-(2-((1-((3-bromophenyl)(methyl)amino)-1-oxo-3-phenylpropan-2-yl)amino)-2-oxoethyl)benzamide] | 38 | 97 | > 50 | 2.2 | –
CN(C(=O)[C@H](Cc1ccccc1)NC(=O)CNC(=O)c1ccccc1)c1cccc(Cl)c1 [Example 37, (S)—N-(2-((1-((3-chlorophenyl)(methyl)amino)-1-oxo-3-phenylpropan-2-yl)amino)-2-oxoethyl)benzamide] | 40 | 95 | > 50 | 2.0 | –
Cc1ccc(N(C)C(=O)[C@H](Cc2ccccc2)NC(=O)Cc2ccc3ccccc3c2)cc1 [Example 11, (S)—N-methyl-2-(2-(naphthalen-2-yl)acetamido)-3-phenyl-N-(p-tolyl)propanamide] | – | – | < 50 | 6.4 | 0.99 ± 0.005
Cc1cn(CC(=O)N[C@@H](Cc2ccccc2)C(=O)N(C)c2ccccc2)c(=O)[nH]c1=O [Example 42, (S)—N-methyl-2-(2-(5-methyl-2,4-dioxo-3,4-dihydropyrimidin-1(2H)-yl)acetamido)-N,3-diphenylpropanamide] | 35 | 95 | > 50 | 0.5 | –
Cc1cn(CC(=O)N[C@@H](Cc2ccccc2)C(=O)N(C)c2cccc(Cl)c2)c(=O)[nH]c1=O [Example 45, (S)—N-(3-chlorophenyl)-N-methyl-2-(2-(5-methyl-2,4-dioxo-3,4-dihydropyrimidin-1(2H)-yl)acetamido)-3-phenylpropanamide] | 37 | 95 | > 50 | 0.6 | –
CN(C(=O)[C@H](Cc1ccccc1)NC(=O)CNC(=O)c1ccccc1)c1ccccc1 [Example 34, (S)—N-(2-((1-(methyl(phenyl)amino)-1-oxo-3-phenylpropan-2-yl)amino)-2-oxoethyl)benzamide] | 15 | 96 | > 50 | 1.3 | –
Cc1cccc2c1NC(=O)C2CC(=O)N[C@@H](Cc1ccccc1)C(=O)N(C)c1cccc(Cl)c1 (stereo partly drawn) [Example 3, (2S)—N-(3-chlorophenyl)-N-methyl-2-(2-(7-methyl-2-oxoindolin-3-yl)acetamido)-3-phenylpropanamide] | – | – | > 100 | −1.7 | 3.3 ± 0.3
CCN(C(=O)[C@H](Cc1ccccc1)NC(=O)CNC(=O)c1ccccc1)c1ccccc1 [Example 41, (S)—N-(2-((1-(ethyl(phenyl)amino)-1-oxo-3-phenylpropan-2-yl)amino)-2-oxoethyl)benzamide] | – | – | > 50 | −2.5 | 2.5 ± 0.03
